Some results are limits rather than exact numbers.

For experiment [1], the target named is T1, HCV NS5B genotype 1b (Con1) (Hepatitis C virus genotype 1b, UniProt Q9WMX2).
T1 construct: Each untagged protein was expressed with an 18 amino acid C-terminal truncation to enhance the solubility; made in house; host or cells: E. coli BL21(DE3), pET21a
Kind of experiment: HCV NS5B RdRp enzyme assay. In kind it is biochemical. As to conditions: 1b enzyme, 24 hours at 30° C. The method, then: The cDNA encoding NS5B proteins of HCV genotype 1b (Con1), a genotype 1b variant with amino acid 316 mutated from cysteine to asparagine, and genotype 2a (JFH-1), were cloned into the pET21a expression vector. Each untagged protein was expressed with an 18 amino acid C-terminal truncation to enhance the solubility. The E. coli competent cell line BL21(DE3) was used for expression of the protein. Cultures were grown at 37° C. for ˜4 hours until the cultures reached an optical density of 2.0 at 600 nm. The cultures were cooled to 20° C. and induced with 1 mM IPTG. Fresh ampicillin was added to a final concentration of 50 μg/mL and the cells were grown overnight at 20° C.
The lysis buffer consisted of 20 mM Tris-HCl, pH 7.4, 500 mM NaCl, 0.5% triton X-100, 1 mM DTT, 1 mM EDTA, 20% glycerol, 0.5 mg/mL lysozyme, 10 mM MgCl2, 15 ug/mL deoxyribonuclease I, and Complete™ protease inhibitor tablets (Roche). After addition of the lysis buffer, frozen cell pellets were resuspended using a tissue homogenizer. To reduce the viscosity of the sample, aliquots of the lysate were sonicated on ice using a microtip attached to a Branson sonicator. The sonicated lysate was centrifuged at 100,000×g for 30 minutes at 4° C. and filtered through a 0.2 μm filter unit (Corning).
The protein was purified using two sequential chromatography steps: Heparin sepharose CL-6B and polyU sepharose 4B. The chromatography buffers were identical to the lysis buffer but contained no lysozyme, deoxyribonuclease I, MgCl2 or protease inhibitor and the NaCl concentration of the buffer was adjusted according to the requirements for charging the protein onto the column. Each column was eluted with a NaCl gradient which varied in length from 5-50 column volumes depending on the column type. […] The enzyme was aliquoted and stored at −80° C.
An on-bead solid phase homogeneous assay was used in a 384-well format to assess NS5B inhibitors (WangY-K, Rigat K, Roberts S, and Gao M (2006) Anal Biochem, 359: 106-111). The biotinylated oligo dT12 primer was captured on streptavidin-coupled imaging beads (GE, RPNQ0261) by mixing primer and beads in 1× buffer and incubating at room temperature for three hours. Unbound primer was removed after centrifugation. The primer-bound beads were resuspended in 3× reaction mix (20 mM Hepes buffer, pH 7.5, dT primer coupled beads, poly A template, ^3H-UTP, and RNAse inhibitor (Promega N2515)). Compounds were serially diluted 1:3 in DMSO and aliquoted into assay plates. Equal volumes (5 μL) of water, 3× reaction mix, and enzyme in 3× assay buffer (60 mM Hepes buffer, pH 7.5, 7.5 mM MgCl2, 7.5 mM KCl, 3 mM DTT, 0.03 mg/mL BSA, 6% glycerol) were added to the diluted compound on the assay plate. Final concentration of components in 384-well assay: 0.36 nM template, 15 nM primer, 0.29 μM ^3H-UTP (0.3 μCi, 1.6 U/μL RNAse inhibitor, 7 nM NS5B enzyme, 0.01 mg/mL BSA, 1 mM DTT, and 0.33 μg/μL beads, 20 mM Hepes buffer, pH 7.5, 2.5 mM MgCl2, 2.5 mM KCl, and 0.1% DMSO.
Reactions were allowed to proceed for 24 hours at 30° C. and terminated by the addition of 50 mM EDTA (5 μL). After incubating for at least 15 minutes, plates were read on an Amersham LEADseeker multimodality imaging system.
IC50 values for compounds were determined using ten different [I]. IC50 values were calculated from the inhibition using the four-parameter logistic formula y=A+((B−A)/(1+((C/x)^D))), where A and B denote minimal and maximal % inhibition, respectively, C is the IC50, D is hill slope and x represents compound concentration.

Experiment [2] deals with genotype 1b (Con-1) HCV replicon in Huh-7 cells. Kind of experiment: HCV replicon luciferase assay. In kind it is cell-based. As to conditions: 1b replicon, Renilla luciferase, 3 days incubation. The method, then: The cell lines used to evaluate compounds consist of a human hepatocyte derived cell line (Huh-7) that constitutively expresses a genotype 1b (Con-1) HCV replicon or a genotype 1b (Con-1) HCV replicon with an asparagine replacing the cysteine at amino acid 316, or a genotype 2a (JFH-1) replicon, containing a Renilla luciferase reporter gene. These cells were maintained in Dulbecco's modified Eagle medium (DMEM) containing 10% FBS, 100 U/mL penicillin/streptomycin and 1.0 mg/mL G418.
To evaluate compound efficacy, titrated compounds were transferred to sterile 384-well tissue culture treated plates, and the plates were seeded with HCV replicon cells ([…] at a density of 2.4×10^3 cells/well) in DMEM containing 4% FBS (final DMSO concentration at 0.5%). After 3 days incubation at 37° C., cells were analyzed for Renilla Luciferase activity using the EnduRen substrate (Promega cat #E6485) according to the manufacturer's directions. Briefly, the EnduRen substrate was diluted in DMEM and then added to the plates to a final concentration of 7.5 μM. The plates were incubated for at least 1 h at 37° C. then read on a Viewlux Imager (PerkinElmer) using a luminescence program. The 50% effective concentration (EC50) was calculated using the four-parameter logistic formula noted above.
Background: A replicon is a self-replicating genome or part of one, used to study replication in cells.

T1 sequence (Q9WMX2 2420-2992): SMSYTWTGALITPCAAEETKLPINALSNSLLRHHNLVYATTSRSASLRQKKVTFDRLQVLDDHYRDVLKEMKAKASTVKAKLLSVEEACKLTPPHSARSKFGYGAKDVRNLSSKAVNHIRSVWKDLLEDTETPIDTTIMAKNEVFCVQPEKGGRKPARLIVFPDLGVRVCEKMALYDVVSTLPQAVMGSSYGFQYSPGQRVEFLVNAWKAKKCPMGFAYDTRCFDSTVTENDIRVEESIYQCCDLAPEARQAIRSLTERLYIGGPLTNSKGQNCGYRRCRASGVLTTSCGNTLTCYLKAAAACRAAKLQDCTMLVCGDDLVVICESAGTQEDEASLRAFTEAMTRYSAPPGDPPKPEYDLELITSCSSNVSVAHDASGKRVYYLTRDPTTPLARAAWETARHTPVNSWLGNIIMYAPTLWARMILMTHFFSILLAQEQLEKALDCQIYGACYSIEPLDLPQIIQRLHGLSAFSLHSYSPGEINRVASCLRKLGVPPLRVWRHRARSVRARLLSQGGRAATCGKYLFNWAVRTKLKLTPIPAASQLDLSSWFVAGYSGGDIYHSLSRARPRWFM

One may read the IC50 as the point on the concentration scale where inhibition reaches its midpoint. Low values mean inhibition by little substance, high ones a need for much substance. One may read the EC50 as the concentration at which the effect is half-maximal. In experiment [1], `CNC(=O)c1c(-c2ccc(F)cc2)oc2nc(NCC(F)(F)F)c(-c3ccc(F)c(C(=O)NC45CC(C4)C5)c3)cc12` showed an IC50 of 9.08 nM. The response in experiment [2] (Hepatitis C virus, Huh-7, 72 h) was half-maximal at 4.34 nM (EC50).
The corresponding values for `CNC(=O)c1c(-c2ccc(F)cc2)oc2nc(CCC(F)(F)F)c(-c3cc(F)cc(C(=O)NC45CC(C4)C5)c3)cc12` are 30 nM and 10 nM.
The corresponding values for `CNC(=O)c1c(-c2ccc(F)cc2)oc2nc(CCC(F)(F)F)c(-c3ccc(OC)c(C(=O)NC45CC(C4)C5)c3)cc12` are 10 nM and 9.23 nM.
The like results for `CNC(=O)c1c(-c2ccc(F)cc2)oc2nc(CCC(F)(F)F)c(-c3ccc(F)c(C(=O)NC45CC(C4)C5)c3)cc12` were, in that order, 9.4 nM and 5.05 nM.
For `CNC(=O)c1c(-c2ccc(F)cc2)oc2nc(CCC(F)(F)F)c(-c3cccc(C(=O)NC45CC(C4)C5)c3)cc12`, the IC50 in experiment [1] came to 5.85 nM. This compound also displayed an EC50 in experiment [2] (Hepatitis C virus, Huh-7, 72 h) of 4.07 nM.
The like results for `CCNc1cc2oc(-c3ccc(F)cc3)c(C(=O)NC)c2cc1-c1cc(C(=O)NC23CC(C2)C3)c(F)cc1F` were, in that order, 20 nM and 10 nM.
The like results for `CNC(=O)c1c(-c2ccc(F)cc2)oc2nc(OC)c(-c3ccc(F)c(C(=O)NC45CC(C4)C5)c3)cc12` were, in that order, 90 nM and 20 nM.
The corresponding values for `CNC(=O)c1c(-c2ccc(F)cc2)oc2cc(CCC(F)(F)F)c(-c3ccc(F)c(C(=O)NC45CC(C4)C5)c3)cc12` are 30 nM and 10 nM.
Regarding `CNC(=O)c1c(-c2ccc(F)cc2)oc2nc(CCC(F)(F)F)c(-c3csc(C(=O)NC45CC(C4)C5)c3)cc12`, a half-maximal response in experiment [2] (Hepatitis C virus, Huh-7, 72 h) (EC50) required 20 nM.
The compound `CNC(=O)c1c(-c2ccc(F)cc2)oc2nc(CCC(F)(F)F)c(-c3cncc(C(=O)NC45CC(C4)C5)c3)cc12` gave an IC50 in experiment [1] of 20 nM. In addition, in experiment [2] (Hepatitis C virus, Huh-7, 72 h), the concentration for a half-maximal effect (EC50) was 3.3 nM.
The like results for `CCCc1cc2oc(-c3ccc(F)cc3)c(C(=O)NC)c2cc1-c1ccc(F)c(C(=O)NC23CC(C2)C3)c1` were, in that order, 10 nM and 8.79 nM.
The like results for `CNC(=O)c1c(-c2ccc(F)cc2)oc2nc(NCC(F)(F)F)c(-c3ccc(OC)c(C(=O)NC45CC(C4)C5)c3)cc12` were, in that order, 20 nM and 3.72 nM.
Take `CNC(=O)c1c(-c2ccc(F)cc2)oc2cc(CCC(F)(F)F)c(-c3cc(C(=O)NC45CC(C4)C5)c(OC)cc3C)cc12`: the IC50 in experiment [1] was determined as 50 nM. This compound gave a half-maximal effective concentration (EC50) in experiment [2] (Hepatitis C virus, Huh-7, 72 h) of 40 nM.
The like results for `CNC(=O)c1c(-c2ccc(F)cc2)oc2cc(CCC(F)(F)F)c(-c3cc(C(=O)NC45CC(C4)C5)c(F)cc3C)cc12` were, in that order, 20 nM and 20 nM.
For the compound `CNC(=O)c1c(-c2ccc(F)cc2)oc2nc(NCC(F)(F)F)c(-c3cccc(C(=O)NC45CC(C4)C5)c3)cc12`, the midpoint of the response in experiment [2] (Hepatitis C virus, Huh-7, 72 h), the EC50, lay at 3.58 nM. This counts as single-digit nanomolar.
Turning to `CNC(=O)c1c(-c2ccc(F)cc2)oc2nc(N(CC(F)(F)F)S(C)(=O)=O)c(-c3cccc(C(=O)NC45CC(C4)C5)c3)cc12`, the EC50 in experiment [2] (Hepatitis C virus, Huh-7, 72 h) was 20 nM.
As to `CNC(=O)c1c(-c2ccc(F)cc2)oc2nc(NCC(F)(F)F)c(-c3cc(C(=O)NC45CC(C4)C5)ccc3OC)cc12`, the 50% effective concentration (EC50) in experiment [2] (Hepatitis C virus, Huh-7, 72 h) was 9.14 nM.
Still for that read-out and setting: the figure for `CNC(=O)c1c(-c2ccc(F)cc2)oc2cc(COC)c(-c3cccc(C(=O)NC45CC(C4)C5)c3)cc12` is 6.21 nM.
Still for that read-out and setting: the figure for `CNC(=O)c1c(-c2ccc(F)cc2)oc2cc(CS(C)(=O)=O)c(-c3cccc(C(=O)NC45CC(C4)C5)c3)cc12` is 70 nM; for `CNC(=O)c1c(-c2ccc(F)cc2)oc2cc(CCC(F)(F)F)c(-c3cccc(C(=O)NC45CC(C4)C5)c3)cc12` it is 30 nM.
Same read-out and setting: next, `CNC(=O)c1c(-c2ccc(F)cc2)oc2cc(CCCOC(=O)c3ccccc3)c(-c3cccc(C(=O)NC45CC(C4)C5)c3)cc12`: 140 nM; `CNC(=O)c1c(-c2ccc(F)cc2)oc2cc(CC(=O)O)c(-c3cccc(C(=O)NC45CC(C4)C5)c3)cc12`: over 10000 nM; `CNC(=O)c1c(-c2ccc(F)cc2)oc2cc(CC(=O)O)c(-c3ccc(F)c(C(=O)NC45CC(C4)C5)c3)cc12`: 8090 nM.
`CNC(=O)c1c(-c2ccc(F)cc2)oc2cc(N)c(-c3ccc(OC)c(C(=O)NC45CC(C4)C5)c3)cc12` yielded an EC50 in experiment [2] (Hepatitis C virus, Huh-7, 72 h) of 10 nM.
Still for that read-out and setting: next, `CNC(=O)c1c(-c2ccc(F)cc2)oc2cc(CC(=O)OC)c(-c3ccc(F)c(C(=O)NC45CC(C4)C5)c3)cc12`: 20 nM.
The same measure, in the same setting: the figure for `CNC(=O)Cc1cc2oc(-c3ccc(F)cc3)c(C(=O)NC)c2cc1-c1cccc(C(=O)NC23CC(C2)C3)c1` is 50 nM; for `CNC(=O)c1c(-c2ccc(F)cc2)oc2cc(CC(=O)N(C)C)c(-c3cccc(C(=O)NC45CC(C4)C5)c3)cc12` it is 310 nM.
`CNC(=O)c1c(-c2ccc(F)cc2)oc2cc(CC(N)=O)c(-c3ccc(F)c(C(=O)NC45CC(C4)C5)c3)cc12` showed a concentration for a half-maximal effect (EC50) in experiment [2] (Hepatitis C virus, Huh-7, 72 h) of 10 nM.
Still for that read-out and setting: next, `CNC(=O)Cc1cc2oc(-c3ccc(F)cc3)c(C(=O)NC)c2cc1-c1ccc(F)c(C(=O)NC23CC(C2)C3)c1`: 50 nM; `CNC(=O)c1c(-c2ccc(F)cc2)oc2cc(CCC(F)(F)F)c(-c3cccc(C(=O)NC45CC(C4)C5)c3)c(F)c12`: 10 nM; `CNC(=O)c1c(-c2ccc(F)cc2)oc2cc(CC(=O)N(C)C)c(-c3ccc(F)c(C(=O)NC45CC(C4)C5)c3)cc12`: 520 nM.
On the same count and under the same terms, the figure for `CNC(=O)c1c(-c2ccc(F)cc2)oc2cc(CS(C)(=O)=O)c(-c3ccc(F)c(C(=O)NC45CC(C4)C5)c3)cc12` is 70 nM; for `CNC(=O)c1c(-c2ccc(F)cc2)oc2cc(CCC(F)(F)F)c(-c3ccc(F)c(C(=O)NC45CC(C4)C5)c3)c(F)c12` it is 40 nM.
Same read-out and setting: the figure for `CNC(=O)c1c(-c2ccc(F)cc2)oc2cc(OCC(F)(F)F)c(-c3cccc(C(=O)NC45CC(C4)C5)c3)cc12` is 10 nM.
In the case of `CNC(=O)c1c(-c2ccc(F)cc2)oc2cc(CCNC(=O)OC)c(-c3cccc(C(=O)NC45CC(C4)C5)c3)cc12`, the half-maximal inhibitory concentration (IC50) in experiment [1] came out at 20 nM. This compound yielded an EC50 in experiment [2] (Hepatitis C virus, Huh-7, 72 h) of 20 nM.
In experiment [1], `CNC(=O)c1c(-c2ccc(F)cc2)oc2cc(CCNS(C)(=O)=O)c(-c3cccc(C(=O)NC45CC(C4)C5)c3)cc12` returned a concentration for half-maximal inhibition (IC50) of 10 nM. This compound also came in with an EC50 in experiment [2] (Hepatitis C virus, Huh-7, 72 h) of 20 nM.
The corresponding values for `CNC(=O)c1c(-c2ccc(F)cc2)oc2cc(OCC(F)(F)F)c(-c3ccc(OC)c(C(=O)NC45CC(C4)C5)c3)cc12` are 4.55 nM and 10 nM.
With `CCC(C)c1cc2oc(-c3ccc(F)cc3)c(C(=O)NC)c2cc1-c1cccc(C(=O)NC23CC(C2)C3)c1` (stereo not drawn) [drawing 305], the EC50 in experiment [2] amounted to 20 nM.

(Values after US9738653B2, “Fused furans for the treatment of hepatitis C” (BRISTOL-MYERS SQUIBB COMPANY, priority 2013, dated 2017).)
